Among the test systems are HT-29; K562; MCF7; HCT-15; HCT-116; 786-0; HOP-92; Hs-578T; RPMI-8226; UACC-62; U-251; OVCAR-4; OVCAR-3; MDA-N; MDA-MB-231; SK-MEL-2; HL-60; Malme-3M.
Holding throughout (experiment): NCI tumour cell line growth inhibition, 48 h

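96-well plates; 48 h exposure; 5 concentrations. Endpoints by linear interpolation between flanking doses. Not reached: highest tested concentration assigned. Abbreviation: GI50, concentration required for 50% inhibition of growth.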 The source made the active and inactive calls. Rule as the data show it: active = GI50 up to about 1.1 µM and inactive = higher.

With `N#CCCN(CCC#N)c1ccc(C(=N/c2ccc(Cl)cc2)/N=N/c2ccccc2)cc1`, the GI50 in the test with HT-29 was > 100 µM (inactive); with K562, > 100 µM (inactive); in the test with MCF7, > 100 µM (inactive); with HCT-15, 27.4 µM; in the test on HCT-116 it was > 100 µM (inactive); in the test with 786-0, > 100 µM (inactive). Moreover, the GI50 is > 100 µM (inactive) in the test with HOP-92; > 100 µM (inactive) in the test with Hs-578T; > 100 µM (inactive) with RPMI-8226; 34.3 µM (inactive) in the test with UACC-62; > 100 µM (inactive) in the test on U-251; 66.5 µM (inactive) with OVCAR-4. For the same molecule, the figures for the GI50 with OVCAR-3, with MDA-N and with MDA-MB-231 were 66.7 µM (inactive), > 100 µM (inactive) and > 100 µM (inactive), respectively.
Consider `CC(C)[C@H]1NC(=O)[C@H]2N=C(S[C@H]2C)[C@@H]2CCCN2C(=O)[C@H](Cc2ccccc2)NC(=O)[C@@H]2CSC(=N2)[C@@H](Cc2ccccc2)NC(=O)[C@@H]2CSC1=N2`, for which the GI50 in the test on HT-29 was 25.8 µM (inactive); in the test on K562, 4.71 µM (inactive); with MCF7 it was 19.1 µM (inactive); in the test on SK-MEL-2, 18.3 µM (inactive); in the test on HL-60, 0.0912 µM (active); in the test on HCT-15 it was 25.3 µM. The GI50 in the test with HCT-116 was 30.9 µM (inactive); in the test with 786-0, 33.7 µM (inactive); in the test on Hs-578T, 15.1 µM (inactive); in the test with RPMI-8226 it was 7.62 µM (inactive); with UACC-62 it was 29.6 µM (inactive); with Malme-3M, > 50 µM (inactive). Besides, the GI50 was 14.9 µM (inactive) in the test with U-251; 10.9 µM (inactive) with OVCAR-4; 20 µM (inactive) in the test with OVCAR-3; 30.2 µM (inactive) in the test on MDA-N; > 50 µM (inactive) in the test on MDA-MB-231.
Take `CC1(C)C[C@H](O)[C@H](O)[C@]23C(=O)O[C@H](O)[C@H]2C(C=O)=CC[C@@H]13`: the GI50 with HT-29 was > 100 µM (inactive); in the test with K562, > 100 µM (inactive); with MCF7, > 100 µM (inactive); with HL-60 it was > 100 µM (inactive); with HCT-15, over 100 µM; in the test on HCT-116 it was > 100 µM (inactive). Besides, the GI50 with 786-0 was > 100 µM (inactive); with Hs-578T, > 100 µM (inactive); with RPMI-8226, > 100 µM (inactive); with UACC-62, 58.9 µM (inactive); in the test with Malme-3M, > 100 µM (inactive); in the test with U-251 it was 96.2 µM (inactive). Moreover, the GI50 in the test on OVCAR-3, in the test on MDA-N and in the test with MDA-MB-231 was > 100 µM (inactive) each time.
For `CC(C)(C)c1ccc(O)c(CN(Cc2c(O)ccc3ccccc23)C2CCCCC2)c1`, the GI50 is 16 µM (inactive) in the test on HT-29; 16.9 µM (inactive) with K562; 17.1 µM (inactive) in the test with MCF7; 16.7 µM (inactive) with SK-MEL-2; 16.4 µM in the test with HCT-15; 16.9 µM (inactive) with HCT-116. Also, the GI50 is 15.5 µM (inactive) in the test on 786-0; 16.4 µM (inactive) in the test with HOP-92; 27.4 µM (inactive) in the test on Hs-578T; 26.6 µM (inactive) with RPMI-8226; 15.6 µM (inactive) with UACC-62; 17.4 µM (inactive) in the test on Malme-3M. Further, the GI50 with U-251 was 16 µM (inactive); in the test with OVCAR-4, 20.7 µM (inactive); in the test on OVCAR-3 it was 17.4 µM (inactive); in the test on MDA-N, 15.5 µM (inactive); in the test with MDA-MB-231, 16.8 µM (inactive).
On to `COc1ccc(-n2nnc(C(N)=O)c2O)cc1`, for which the GI50 in the test on HT-29 was > 100 µM (inactive); in the test on K562 it was > 100 µM (inactive); in the test on MCF7, > 100 µM (inactive); with SK-MEL-2, > 100 µM (inactive); with HL-60, > 100 µM (inactive); in the test on HCT-15, over 100 µM. Further, the GI50 in the test on HCT-116 was > 100 µM (inactive); with 786-0, > 100 µM (inactive); with Hs-578T, > 100 µM (inactive); in the test with RPMI-8226, > 100 µM (inactive); with UACC-62, > 100 µM (inactive); in the test on Malme-3M, 91 µM (inactive). Also, the GI50 was > 100 µM (inactive) in the test on U-251; > 100 µM (inactive) in the test on OVCAR-4; 0.0187 µM (active) in the test on OVCAR-3; > 100 µM (inactive) with MDA-N; > 100 µM (inactive) in the test with MDA-MB-231.
Regarding `COc1c(Br)cc2ccccc2c1-c1c(OC)c(Br)cc2ccccc12`, the GI50 in the test on HT-29 was > 100 µM (inactive); with K562 it was 38.9 µM (inactive); in the test on MCF7, 49.9 µM (inactive); with SK-MEL-2, > 100 µM (inactive); in the test on HL-60, 25.6 µM (inactive); in the test with HCT-15 it was over 100 µM. Further, the GI50 with 786-0 was > 100 µM (inactive); in the test on HOP-92, > 100 µM (inactive); with Hs-578T, > 100 µM (inactive); with RPMI-8226, 80.5 µM (inactive); with UACC-62 it was > 100 µM (inactive); with U-251, > 100 µM (inactive). The GI50 in the test on OVCAR-4, with OVCAR-3, in the test with MDA-N and in the test on MDA-MB-231 was > 100 µM (inactive) in each case.
As to `c1ncn(C23C4C5C6C4C2C6C53)n1` (stereo unspecified), the GI50 is > 100 µM (inactive) with HT-29; > 100 µM (inactive) in the test with K562; > 100 µM (inactive) with MCF7; > 100 µM (inactive) with SK-MEL-2; > 100 µM (inactive) in the test with HL-60; over 100 µM in the test with HCT-15. For the same molecule, the GI50 in the test on HCT-116, with 786-0, with Hs-578T, with RPMI-8226, in the test with U-251 and in the test with MDA-N was > 100 µM (inactive) throughout. In addition, the GI50 with MDA-MB-231 was > 100 µM (inactive).
In the case of `CN1Cc2ccccc2S(=O)(=O)n2cccc2C1=O`, the GI50 with K562 is > 100 µM (inactive); in the test with MCF7 it was > 100 µM (inactive); in the test on SK-MEL-2 it was > 100 µM (inactive); with HL-60 it was > 100 µM (inactive); with HCT-15, over 100 µM; in the test on HCT-116 it was > 100 µM (inactive). Also, the GI50 with 786-0, in the test with HOP-92, with Hs-578T, with RPMI-8226, in the test with UACC-62 and in the test on U-251 was > 100 µM (inactive) in each case. The GI50 in the test with OVCAR-4, in the test with OVCAR-3, with MDA-N and with MDA-MB-231 was > 100 µM (inactive) in each case.
`CC(C)=CCC/C(C)=C/C=C/C(C)=C/C=C/C(C)=C/C=C/C=C(C)/C=C/C=C(C)/C=C/[C@H]1C(C(C)(C)O)CC[C@]1(C)O` (stereo partly specified): the GI50 with HT-29 is 27.5 µM (inactive); with K562, 21.4 µM (inactive); in the test on MCF7, 16.4 µM (inactive); in the test with SK-MEL-2 it was 37 µM (inactive); in the test with HL-60, 19.3 µM (inactive); in the test on HCT-15, 19.4 µM. Moreover, the GI50 with HCT-116 is 15.7 µM (inactive); with 786-0, 21.4 µM (inactive); with HOP-92, 12.7 µM (inactive); in the test on Hs-578T it was 22.1 µM (inactive); with RPMI-8226 it was 17.7 µM (inactive); in the test on U-251, 20.7 µM (inactive). The GI50 with OVCAR-4 was 32.1 µM (inactive); in the test on OVCAR-3, 18.8 µM (inactive); in the test on MDA-N, 25.1 µM (inactive); in the test on MDA-MB-231, 25.4 µM (inactive).
Take `CCOC(=O)c1c(N2CCCC2)[nH]c(=O)c(C(c2c(O)c(C(=O)OCC)c(N3CCCC3)[nH]c2=O)C(C)C)c1O`: the GI50 in the test with HT-29 was > 100 µM (inactive); in the test with K562, > 100 µM (inactive); in the test with MCF7, > 100 µM (inactive); with HCT-15, over 100 µM; in the test on HCT-116 it was > 100 µM (inactive); with 786-0, 61.8 µM (inactive). The GI50 in the test on HOP-92 was 28.7 µM (inactive); in the test on Hs-578T, 42.1 µM (inactive); in the test with RPMI-8226, > 100 µM (inactive); with UACC-62, > 100 µM (inactive); with Malme-3M, > 100 µM (inactive); in the test on U-251, 37.8 µM (inactive). Also, the GI50 in the test on OVCAR-4 was > 100 µM (inactive); in the test with OVCAR-3, > 100 µM (inactive); in the test on MDA-N it was > 100 µM (inactive); in the test on MDA-MB-231, 21.7 µM (inactive).
Regarding `O=[N+]([O-])c1ccc(/N=N/N2CCCC2)cc1`, the GI50 in the test with K562 is > 100 µM (inactive); with MCF7, > 100 µM (inactive); in the test with SK-MEL-2, > 100 µM (inactive); with HL-60 it was 32.2 µM (inactive); with HCT-15, over 100 µM; in the test on HCT-116 it was > 100 µM (inactive). For the same molecule, the GI50 with 786-0, with HOP-92, in the test on Hs-578T, with RPMI-8226, with UACC-62 and in the test on U-251 was > 100 µM (inactive) in each case. For the same molecule, the GI50 with OVCAR-4, with OVCAR-3, in the test with MDA-N and in the test on MDA-MB-231 was > 100 µM (inactive) each time.
As for `O=C(/C=C/c1ccc(O)c(O)c1)OCCOC(=O)/C=C/c1ccc(O)c(O)c1`, the GI50 with HT-29 is 21.4 µM (inactive); in the test on K562, 24.8 µM (inactive); in the test with MCF7, 34.5 µM (inactive); in the test on SK-MEL-2 it was 22.1 µM (inactive); with HCT-15 it was 35.1 µM; in the test on HCT-116, 21.1 µM (inactive). Moreover, the GI50 was 42.3 µM (inactive) in the test with 786-0; 42.2 µM (inactive) in the test on HOP-92; 39.4 µM (inactive) with Hs-578T; 36.2 µM (inactive) with RPMI-8226; 18.7 µM (inactive) with UACC-62; 42.1 µM (inactive) in the test with Malme-3M. Moreover, the GI50 with U-251 is 25.3 µM (inactive); in the test with OVCAR-4 it was 39.1 µM (inactive); in the test on OVCAR-3, 19.3 µM (inactive); in the test on MDA-N, 19.8 µM (inactive); with MDA-MB-231, 38 µM (inactive).
